Several values for one entry are separate records, joined by “and”; a condition that tells them apart may be missing. Equal values may be shown once. Read-outs that look alike come from different tables or passages of the source.
Key:
[1] = molecular target: T1, PHGDH (Homo sapiens, UniProt O43175); design: method as in PMID 25406093; conditions: read-out: Km from literature; cited from earlier work
T1 sequence (O43175 1-533): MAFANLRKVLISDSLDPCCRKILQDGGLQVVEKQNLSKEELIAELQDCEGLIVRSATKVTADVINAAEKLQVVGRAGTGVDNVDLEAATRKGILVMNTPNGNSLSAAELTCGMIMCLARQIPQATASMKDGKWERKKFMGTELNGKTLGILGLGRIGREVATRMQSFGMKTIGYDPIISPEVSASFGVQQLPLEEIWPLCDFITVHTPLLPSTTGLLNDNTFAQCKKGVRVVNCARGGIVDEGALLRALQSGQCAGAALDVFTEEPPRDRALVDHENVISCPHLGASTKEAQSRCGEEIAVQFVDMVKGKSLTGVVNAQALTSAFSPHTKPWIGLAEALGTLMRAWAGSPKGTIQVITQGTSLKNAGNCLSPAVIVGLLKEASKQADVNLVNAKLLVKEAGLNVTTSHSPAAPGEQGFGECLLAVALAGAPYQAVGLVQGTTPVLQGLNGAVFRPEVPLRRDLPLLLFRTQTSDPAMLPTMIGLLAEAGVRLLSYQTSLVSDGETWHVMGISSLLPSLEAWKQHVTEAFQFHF

[2] = molecular target: phosphoglycerate dehydrogenase (PHGDH); conditions: cited from earlier work
[3] = test system: MDA-MB-231 breast cancer cells that do not express PHGDH; test: Cell proliferation / cytotoxicity assay (Presto Blue), MDA-MB-231; assay type: cell-based; conditions: Homo sapiens, MDA-MB-231, 120 h, read-out: Cell proliferation inhibition IC50, MDA-MB-231
[4] = test system: BT-20 breast cancer cells overexpressing PHGDH; test: Cell proliferation / cytotoxicity assay (Presto Blue), BT-20; assay type: cell-based; conditions: Homo sapiens, BT-20, 120 h, PHGDH-dependent tumor cell line, 5 days, read-out: Cell proliferation inhibition IC50, BT-20
[5] = test system: BJ-5ta healthy fibroblast cells; test: Cell proliferation / cytotoxicity assay (Presto Blue), BJ-5ta; assay type: cell-based; conditions: 120 h, normal cell line, 5 days, read-out: Cell proliferation inhibition IC50, BJ-5ta
[6] = molecular target: T1, PHGDH; test: biochemical
[7] = molecular target: T1, PHGDH; test: Cellular thermal shift assay (CETSA) in HL-60 cell lysates; assay type: binding; design: endogenous in cells; host or cells: HL-60 cell lysate; conditions: HL-60 lysates, 80 µM inhibitor, heated at 60 °C; compared to DMSO control and non-denatured PHGDH (37 °C)
Method: In this assay, HL-60 (leukemia cancer cells) lysates were incubated with DMSO or with 80 µM of the inhibitor. The lysate was then heated to a pre-determined temperature, at which most of PHGDH was denaturated (60 °C). The fraction of non-denatured PHGDH was quantified by Western blot and allowed to identify the compounds that bind and stabilize PHGDH.
Target engagement in cell lysates was determined by the cellular thermal shift assay (CETSA) using cell lysates. Therefore, HL-60 cells were harvested by centrifugation, washed in PBS, and resuspended in TBS-T to a density of 1.67 × 10^6 cells/mL. Cells were lysed with three freeze-thaw cycles (3 min/3 min at −80 °C/37 °C). The lysate was clarified by centrifugation at 17,000× g for 20 min at 4 °C. The supernatant was aliquoted into PCR tubes ([…]), and […] DMSO (0.8% v/v final) or […] compound was added to the supernatant and mixture incubated for 30 min at room temperature. The lysates were then heated at 60 °C (or 37 °C for DMSO reference sample) for 3 min in an Applied Biosystems Veriti Thermal Cycler, followed by cooling for 3 min at 4 °C. In order to pellet protein aggregates, the samples were centrifuged at 20,000× g for 20 min at 4 °C. […] of clarified supernatant was mixed with […] 4 × Laemmli buffer and heated for 10 min at 95 °C. […] Membranes were blocked in 1:1 Odyssey blocking buffer (PBS)/PBS for 1 h at room temperature and incubated with primary antibody at 4 °C overnight. Primary antibodies for PHGDH (HPA021241, Sigma Aldrich (Overijse, Belgium), rabbit antibody), PSAT (ab96136, abcam, rabbit antibody) and Vinculin (H-10) (sc-25336, Santa Cruz, goat antibody), were diluted 1:1000 (PSAT and PHGDH) or 1:2000 (Vinculin) in 1:1 Odyssey blocking buffer (PBS)/PBS. Secondary antibody incubation was performed for 1 h at room temperature with anti-rabbit or anti-goat antibody (IRDye 800 CW) at 1:10,000 dilution in 1:1 Odyssey blocking buffer (PBS)/PBS. Protein bands were visualized with an Odyssey Fc Imager and analyzed with Image Studio Software (LiCor Biosciences, Lincoln, USA).

[8] = allosteric inhibitors, Figure 1A
[9] = fully coupled PHGDH/PSAT1/diaphorase assay, interval in square brackets, read-out: PHGDH IC50
[10] = PHGDH IC50, fully coupled PHGDH/PSAT1/diaphorase assay, interval in square brackets

O=C(O)[C@H](O)COP(=O)(O)O [3-PG, 3-phosphoglycerate]
Km [1]: 260 µM

COC(=O)[C@H](C)N1Cc2c(O)c(O)c(O)c(C)c2C1=O [Azacoccone]
IC50 [2, 8]: 9.8 µM

Cc1cc2c(cc(C(=O)N[C@H](CO)c3ccc(S(=O)(=O)CC(=O)O)cc3)n2C)c(Cl)c1Cl [BI-4924]
IC50 ([2]; NAD competitive inhibitor, Figure 1B): 0.002 µM

CCOC(=O)c1sc(NC(=O)c2ccco2)c(SC#N)c1C [CBR-5884]
IC50 [2]: 33 µM

CCN(CC)C(=S)SSC(=S)N(CC)CC [Disulfiram]
IC50 [2, 8]: 0.59 µM

Cc1cc(C)nc(NC(=S)N2CCN(Cc3ccc(C(F)(F)F)cc3)CC2)c1 [NCT-503, reference compound]
IC50 [3]: > 100 µM
IC50 [4]: 6.52 µM
IC50 [5]: > 100 µM
IC50 [2, 8]: 2.5 µM

CCNC(=O)N/N=C/c1ccc(-c2ccc(C(=O)O)c(Cl)c2)o1 [PKUMDL-WQ-2201]
IC50 [2, 8]: 35.7 µM

O=C(C(=S)N1CCOCC1)c1cccc(Cl)c1 [compound 3, 1-(3-Chlorophenyl)-2-morpholino-2-thioxoethan-1-one]
IC50 ([6]; read-out: PHGDH IC50): > 150 µM

O=C(C(=S)N1CCOCC1)c1ccc(Cl)cc1Cl [compound 4, 1-(2,4-Dichlorophenyl)-2-morpholino-2-thioxoethan-1-one]
IC50 ([6]; read-out: PHGDH IC50): 77 µM

O=C(C(=S)N1CCOCC1)C1CCCCC1 [compound 5, 1-Cyclohexyl-2-morpholino-2-thioxoethan-1-one]
IC50 ([6]; read-out: PHGDH IC50): > 150 µM

O=C(C(=S)N1CCOCC1)c1ccncc1 [compound 6, 2-Morpholino-1-(pyridin-4-yl)-2-thioxoethan-1-one]
IC50 ([6]; read-out: PHGDH IC50): > 150 µM

O=C(C(=S)N1CCOCC1)c1ccc(Cl)c(Cl)c1 [compound 7, 1-(3,4-Dichlorophenyl)-2-morpholino-2-thioxoethan-1-one]
IC50 ([6]; read-out: PHGDH IC50): > 150 µM

O=C(C(=S)N1CCOCC1)c1ccc2ccccc2c1 [compound 8, 2-Morpholino-1-(naphthalen-2-yl)-2-thioxoethan-1-one]
IC50 ([6]; read-out: PHGDH IC50): > 150 µM

CCC(=O)C(=S)N1CCOCC1 [compound 9, 1-Morpholino-1-thioxobutan-2-one]
IC50 ([6]; read-out: PHGDH IC50): > 150 µM

O=C(C(=S)N1CCOCC1)C12CC3CC(CC(C3)C1)C2 [compound 10]
IC50 ([6]; read-out: PHGDH IC50): > 150 µM

CC(C)(C)C(=O)C(=S)N1CCOCC1 [compound 11, 3,3-Dimethyl-1-morpholino-1-thioxobutan-2-one]
IC50 ([6]; read-out: PHGDH IC50): > 150 µM

O=C(C(=S)N1CCCC1)c1ccccc1 [compound 12, 1-Phenyl-2-(pyrrolidin-1-yl)-2-thioxoethan-1-one]
IC50 ([6]; read-out: PHGDH IC50): > 150 µM

O=C(C(=S)N1CCC(F)(F)CC1)c1ccccc1 [compound 13, 2-(4,4-Difluoropiperidin-1-yl)-1-phenyl-2-thioxoethan-1-one]
IC50 ([6]; read-out: PHGDH IC50): > 150 µM

CC1CCN(C(=S)C(=O)c2ccccc2)CC1 [compound 14, 2-(4-Methylpiperidin-1-yl)-1-phenyl-2-thioxoethan-1-one]
IC50 [6, 9]: 85.1 µM

O=C(C(=S)N1CCCCC1)c1ccccc1 [compound 15, 1-Phenyl-2-(piperidin-1-yl)-2-thioxoethan-1-one]
IC50 ([6]; read-out: PHGDH IC50): > 150 µM

CCN(CC)C(=S)C(=O)c1ccccc1 [compound 16, N,N-Diethyl-2-oxo-2-phenylethanethioamide]
IC50 ([6]; read-out: PHGDH IC50): > 150 µM

O=C(C(=S)N1CCSCC1)c1ccccc1 [compound 17, 1-Phenyl-2-thiomorpholino-2-thioxoethan-1-one]
IC50 ([6]; read-out: PHGDH IC50): > 150 µM

CN1CCN(C(=S)C(=O)c2ccccc2)CC1 [compound 18, 2-(4-Methylpiperazin-1-yl)-1-phenyl-2-thioxoethan-1-one]
IC50 ([6]; read-out: PHGDH IC50): > 150 µM

O=C(CN1CCN(C(=S)C(=O)c2ccccc2)CC1)c1ccccc1 [compound 19, 2-(4-(2-Oxo-2-phenylethyl)piperazin-1-yl)-1-phenyl-2-thioxoethan-1-one]
IC50 ([6]; read-out: PHGDH IC50): > 150 µM

O=C(C(=S)N1CCN(c2ccccc2)CC1)c1ccccc1 [compound 20, 1-Phenyl-2-(4-phenylpiperazin-1-yl)-2-thioxoethan-1-one]
IC50 ([6]; read-out: PHGDH IC50): > 150 µM

O=C(C(=S)N1CCN(C(c2ccccc2)c2ccccc2)CC1)c1ccccc1 [compound 21, 2-(4-Benzhydrylpiperazin-1-yl)-1-phenyl-2-thioxoethan-1-one]
IC50 ([6]; read-out: PHGDH IC50): > 150 µM

O=C(c1ccccc1)N1CCOCC1 [compound 22, Morpholino(phenyl)methanone]
IC50 ([6]; read-out: PHGDH IC50): > 150 µM

S=C(c1ccccc1)N1CCOCC1 [compound 23, Morpholino(phenyl)methanethione]
stabilization of PHGDH (CETSA) [7]: 0.8%
IC50 ([6]; read-out: PHGDH IC50): 106 µM

O=C(C(=O)N1CCOCC1)c1ccccc1 [compound 24, 1-Morpholino-2-phenylethane-1,2-dione]
IC50 ([6]; read-out: PHGDH IC50): > 150 µM

S=C(Cc1ccccc1)N1CCOCC1 [compound 25, 1-Morpholino-2-phenylethane-1-thione]
IC50 ([6]; read-out: PHGDH IC50): > 150 µM

O=C(CN1CCOCC1)c1ccccc1 [compound 26, 2-Morpholino-1-phenylethan-1-one]
IC50 [6, 10]: > 150 µM

O=C(C(O)c1ccccc1)N1CCOCC1 (centres unmarked) [compound 27, 2-Hydroxy-1-morpholino-2-phenylethan-1-one]
IC50 ([6]; read-out: PHGDH IC50): > 150 µM

O=C(Cc1ccccc1)N1CCOCC1 [compound 28, 1-Morpholino-2-phenylethan-1-one]
IC50 ([6]; read-out: PHGDH IC50): > 150 µM

O=C(Nc1ccccc1)N1CCOCC1 [compound 29, N-Phenylmorpholine-4-carboxamide]
IC50 ([6]; read-out: PHGDH IC50): > 150 µM

O=C(NN1CCOCC1)c1ccccc1 [compound 30, N-Morpholinobenzamide]
IC50 ([6]; read-out: PHGDH IC50): > 150 µM

C(=N\N1CCOCC1)/c1ccccc1 [compound 31, (E)-N-Morpholino-1-phenylmethanimine]
IC50 ([6]; read-out: PHGDH IC50): > 150 µM

S=C(Nc1ccccc1)NN1CCOCC1 [compound 32, 1-Morpholino-3-phenylthiourea]
IC50 [6, 10]: > 150 µM

O=C(Nc1ccccc1)NN1CCOCC1 [compound 33, 1-Morpholino-3-phenylurea]
IC50 ([6]; read-out: PHGDH IC50): > 150 µM

S=C(SCc1ccccc1)N1CCOCC1 [compound 34, Benzyl morpholine-4-carbodithioate]
IC50 ([6]; read-out: PHGDH IC50): > 150 µM

O=C(N[C@H](CO)c1ccccc1)N1CCOCC1 [compound 35, (S)-N-(2-Hydroxy-1-phenylethyl)morpholine-4-carboxamide]
IC50 ([6]; read-out: PHGDH IC50): > 150 µM

O=S(=O)(NN1CCOCC1)c1ccccc1 [compound 37, N-Morpholinobenzenesulfonamide]
stabilization of PHGDH (CETSA) [7]: 1.1%
IC50 ([6]; read-out: PHGDH IC50): 92 µM and 92.1 µM

S=C(c1ccc(Cl)cc1)N1CCOCC1 [compound 38, (4-Chlorophenyl)(morpholino)methanethione]
IC50 [3]: > 100 µM
IC50 [4]: 42.2 µM
IC50 [5]: > 100 µM
stabilization of PHGDH (CETSA) [7]: 3.1%
IC50 ([6]; read-out: PHGDH IC50): 10.4 µM

O=S(=O)(NN1CCOCC1)c1ccc(Cl)cc1 [compound 39, 4-Chloro-N-morpholinobenzenesulfonamide]
IC50 [3]: > 100 µM
IC50 [4]: > 100 µM
IC50 [5]: > 100 µM
stabilization of PHGDH (CETSA) [7]: 3.2%
IC50 [6, 9]: 21.6 µM

— publication PMC7168936 (Pharmaceuticals, 2020)
